The values below come from patent publication US8399508B2, “Olopatadine formulations for topical nasal administration” (Alcon Pharmaceuticals Ltd., priority 2001, dated 2013).

What all share (assay type): physicochemical
Series [1] is described as follows: Effect of NaCl and Na2HPO4 on dissolution of olopatadine hydrochloride in water. On the procedure: The effect of NaCl on the dissolution rate of olopatadine hydrochloride in water was determined.
The nature of series [2]: Acid-base equilibrium of olopatadine (pKa values, iso-electric point). The source says: Olopatadine has both a carboxylic functional group (pKa1=4.18) and a tertiary amino group (pKa2=9.79). It exists in different ionic forms depending upon the pH of the solution. Olopatadine exists predominantly as a zwitterion in the pH range between the two pKa values with a negatively-charged carboxylic group and a positively-charged tertiary amino group. The iso-electric point of the olopatadine zwitterion is at pH 6.99. At a pH lower than pKa1, cationic olopatadine (with ionized tertiary amino group) is dominant. At a pH higher than pKa2, anionic olopatadine (with ionized carboxylic group) is dominant.

Series [3] can be described thus: Example 5: visual observations of clarity during compounding, with and without phosphate buffer. The note with it: without phosphate buffer, 0.7% NaCl, pH as low as 3.6, compounding procedure of Example 1. The procedure:
An exemplary compounding procedure for the nasal composition shown in Table 1 is described as below. • 1. Tare a suitable compounding vessel with magnetic stir bar. Add approximately 80% of the batch weight of purified water. • 2. While stirring, add dibasic sodium phosphate (anhydrous), sodium chloride, edetate disodium, benzalkonium chloride and olopatadine HCl. • 3. Add equivalent to approximately 0.55 g, 6N hydrochloric acid per 100 ml batch. • 4. Allow adequate time between each addition for dissolution of each ingredient • 5. Add purified water to approximately 90% of final batch weight. • 6. Measure pH and adjust, if necessary, to 3.7 with 6N (and/or 1N) hydrochloric acid and 1N sodium hydroxide. • 7. Adjust to final batch weight with purified water (QS). • 8. Measure final pH. • 9. Filter through 0.2 μm filtration membrane.
The two compositions shown in Table 2 below were prepared using the procedure described in Example 1 and visual observations of the compositions clarity were made at different points during the compounding procedure.

Series [4] is described as follows: Effect of NaCl, Na2HPO4 and mannitol on dissolution rate of olopatadine hydrochloride in a nasal vehicle. The note with it: nasal formulation containing 0.01% EDTA and 0.01% BAC. The procedure: The effect of NaCl, Na2HPO4, and mannitol on the dissolution rate of olopatadine hydrochloride in a nasal formulation containing 0.01% EDTA and 0.01% BAC was determined.

Series [5] can be described thus: Effect of NaCl and Na2HPO4 concentrations on dissolution of olopatadine hydrochloride in a nasal formulation. On the procedure:
The effect of NaCl and Na2HPO4 concentrations on the dissolution rate of olopatadine hydrochloride in a nasal formulation containing 0.01% EDTA and 0.01% BAC was determined. The aqueous solubility of olopatadine HCl decreases with increasing concentration of NaCl.

A short description of series [6]: Example 6: visual observations, phosphate buffer added to cloudy 0.6% olopatadine composition. The note with it: tested nasal vehicle without a phosphate salt.

Structures can show the parent of a compound that is named as a salt.

`CN(C)CC/C=C1/c2ccccc2COc2ccc(CC(=O)O)cc21` [Olopatadine, Z-11-(3-dimethylaminopropylidene)-6,11-dihydrodibenz[b,e]oxepine-2-acetic acid]: in series [1] (in water), the “effect of NaCl on rate of dissolution” value is recorded as “significant reduction”. For the same molecule, the “effect of addition of Na2HPO4 on dissolution” value in series [1] (in water with NaCl) was “dramatically improved”. In addition, the “time for complete dissolution of 0.6% olopatadine solution” value in series [1] (with Na2HPO4) is “less than one minute”. Also, the “time for complete dissolution of 0.6% olopatadine solution” value in series [1] (without Na2HPO4, assuming the entire amount would eventually dissolve) is recorded as “at least several hours”. Besides, in series [2], the “iso-electric point of the olopatadine zwitterion” value turned out to be 6.99 pH, the “pKa1 (carboxylic functional group)” value came to 4.18 and the “pKa2 (tertiary amino group)” value stood at 9.79.
In the case of `CN(C)CC/C=C1/c2ccccc2COc2ccc(CC(=O)O)cc21` [olopatadine hydrochloride, hydrochloride salt of (Z)-11-(3-dimethylaminopropylidene)-6,11-dihydro-dibenz-[b,e]oxepin-2-acetic acid], the “dissolution of 0.665% olopatadine hydrochloride in water” value in series [3] is given as “did not completely dissolve”. For the same molecule, the “effect of phosphate salt on dissolution rate” value in series [4] is listed as “the same as that shown in water in Example 2”. The aqueous solubility entry in series [5] (with increasing concentration of NaCl, nasal formulation with 0.01% EDTA and 0.01% BAC) is given as “decreases”; in series [5] (with increasing phosphate buffer in the presence of NaCl), “increased aqueous solubility”. In addition, in series [6], the “solubility of 0.665% olopatadine hydrochloride” value is “not soluble”.
